Each structure is given as a SMILES string. Calls of active or inactive are those of the source.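 Rule for the calls: active = IC50 at or below 20 µM; inactive = the rest.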

The target of this experiment is Tyrosine-protein phosphatase non-receptor type 22 (Homo sapiens) (UniProt Q9Y2R2). The experiment can be described thus: PTPN22 enzyme inhibitor analogs – biochemical, fluorescence, LYP catalytic domain, selectivity assay for LMPTP inhibitor project, SAR follow-up (AID 743309). Particulars: recombinant LYP catalytic domain, OMFP fluorescence.
Sequence of Tyrosine-protein phosphatase non-receptor type 22 (Homo sapiens) (Q9Y2R2 whole entry, looked up, the tested form may be a part): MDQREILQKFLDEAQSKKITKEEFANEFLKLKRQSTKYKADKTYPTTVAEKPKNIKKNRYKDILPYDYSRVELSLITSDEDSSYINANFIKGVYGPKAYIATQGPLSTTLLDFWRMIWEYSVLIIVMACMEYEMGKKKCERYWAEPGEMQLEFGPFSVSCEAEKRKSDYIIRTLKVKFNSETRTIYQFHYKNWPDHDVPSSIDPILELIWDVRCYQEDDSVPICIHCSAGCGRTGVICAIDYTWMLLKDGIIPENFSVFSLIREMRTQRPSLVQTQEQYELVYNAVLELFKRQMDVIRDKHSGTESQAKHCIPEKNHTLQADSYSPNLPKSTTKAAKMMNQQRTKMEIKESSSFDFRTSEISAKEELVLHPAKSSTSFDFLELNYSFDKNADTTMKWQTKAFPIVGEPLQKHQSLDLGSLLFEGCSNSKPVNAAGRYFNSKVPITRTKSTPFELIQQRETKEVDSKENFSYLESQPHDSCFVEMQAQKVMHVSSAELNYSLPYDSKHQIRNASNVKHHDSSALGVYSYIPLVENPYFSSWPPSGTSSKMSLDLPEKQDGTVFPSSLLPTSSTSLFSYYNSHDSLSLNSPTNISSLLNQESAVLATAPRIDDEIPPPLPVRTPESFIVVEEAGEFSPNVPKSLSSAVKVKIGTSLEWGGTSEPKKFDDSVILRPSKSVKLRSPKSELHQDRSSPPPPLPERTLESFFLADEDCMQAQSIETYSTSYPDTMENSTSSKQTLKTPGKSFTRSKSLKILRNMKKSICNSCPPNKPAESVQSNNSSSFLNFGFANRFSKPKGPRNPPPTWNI
With `CCc1nc(N)nc(N)c1-c1ccc(Cl)cc1`, the IC50 was > 80 µM (inactive). For `Cc1ccc(-c2nc(NCCN3CCOCC3)c3ccccc3n2)cc1` the value was > 80 µM (inactive); for `FC(F)(F)c1cccc(-c2cc(NCCCN3CCCCC3)c3ccccc3n2)c1`, > 80 µM (inactive); for `CC(C)CNc1nc(-c2ccccc2)nc2ccccc12`, > 80 µM (inactive). For `CC(C)Nc1nc(-c2ccccc2)nc2ccccc12` the value was > 80 µM (inactive); for `c1ccc(-c2cc(N3CCCCC3)c3ccccc3n2)cc1`, > 80 µM (inactive); for `c1ccc(-c2nc(NCCCN3CCCCC3)c3ccccc3n2)cc1`, > 80 µM (inactive). The value for `Fc1ccc(-c2cc(NCCCN3CCCCC3)c3ccccc3n2)cc1` was > 80 µM (inactive). In the case of `Cc1ccc2nc(-c3ccccc3)cc(NCCCN3CCCCC3)c2c1`, the IC50 is > 80 µM (inactive). Turning to `CN(C)CCNc1cc(-c2ccccc2)nc2ccccc12`, the IC50 is > 80 µM (inactive). For `Fc1ccc2nc(-c3ccccc3)cc(NCCCN3CCCCC3)c2c1` the value was > 80 µM (inactive); for `Cc1ccc(-c2nc(NCc3cccnc3)c3ccccc3n2)cc1`, > 80 µM (inactive). With `c1ccc(-c2nc(N3CCCCC3)c3ccccc3n2)cc1`, the IC50 was > 80 µM (inactive). For `c1ccc(-c2nc(NCCN3CCCCC3)c3ccccc3n2)cc1` the value was > 80 µM (inactive); for `CN(C)CCNc1nc(-c2ccccc2)nc2ccccc12`, > 80 µM (inactive); for `Nc1nc(N)c(Cc2ccc(Cl)cc2Cl)c(N)n1`, > 80 µM (inactive). For `COc1ccccc1-c1cc(NCCCN2CCCCC2)c2ccccc2n1` the value was > 80 µM (inactive). The value for `CCN(CC)c1nc(-c2ccccc2)nc2ccccc12` was > 80 µM (inactive); that for `c1ccc(-c2cc(NCCN3CCCC3)c3ccccc3n2)cc1` was > 80 µM (inactive).

For `c1ccc(-c2cc(OCCCN3CCCCC3)c3ccccc3n2)cc1`, the IC50 is > 80 µM (inactive). The value for `c1ccc(-c2nc(NCCN3CCCC3)c3ccccc3n2)cc1` was > 80 µM (inactive); that for `c1ccc(-c2nc(NC3CCCCC3)c3ccccc3n2)cc1` was > 80 µM (inactive); that for `CC1CCN(c2nc(-c3ccccc3)nc3ccccc23)CC1` was > 80 µM (inactive). Regarding `Fc1ccccc1-c1nc(NC2CCCC2)c2ccccc2n1`, the IC50 was > 80 µM (inactive). `Fc1cccc(-c2cc(NCCCN3CCCCC3)c3ccccc3n2)c1`: the IC50 was > 80 µM (inactive). For `Clc1cccc(-c2cc(NCCCN3CCCCC3)c3ccccc3n2)c1` the value was > 80 µM (inactive); for `Cc1cccc(-c2nc(NCCCN3CCOCC3)c3ccccc3n2)c1`, > 80 µM (inactive). For `c1ccc(-c2nc(NC3CC3)c3ccccc3n2)cc1` the value was > 80 µM (inactive). The value for `c1ccc(-c2nc(N3CCOCC3)c3ccccc3n2)cc1` was > 80 µM (inactive). Regarding `O=C(OCCNc1nc(-c2ccccc2)nc2ccccc12)c1ccncc1`, the IC50 was > 80 µM (inactive). Consider `c1ccc(-c2nc(NCCCN3CCOCC3)c3ccccc3n2)cc1`, for which the IC50 is > 80 µM (inactive). For `c1ccc(-c2nc(N3CCSCC3)c3ccccc3n2)cc1` the value was > 80 µM (inactive); for `Cc1ccc(-c2cc(NCCCN3CCCCC3)c3ccccc3n2)cc1`, > 80 µM (inactive); for `c1ccc(-c2nc(NCc3cccnc3)c3ccccc3n2)cc1`, > 80 µM (inactive). The value for `Clc1ccccc1-c1cc(NCCCN2CCCCC2)c2ccccc2n1` was > 80 µM (inactive); that for `CCCCNc1nc(-c2ccccc2)nc2ccccc12` was > 80 µM (inactive); that for `COc1ccccc1CNc1ncnc2ccsc12` was > 80 µM (inactive).

Take `COc1cccc(-c2cc(NCCCN3CCCCC3)c3ccccc3n2)c1`: the IC50 was > 80 µM (inactive).

Turning to `c1ccc(-c2cc(NCCCN3CCOCC3)c3ccccc3n2)cc1`, the IC50 is > 80 µM (inactive). The value for `c1ccc(-c2nc(N3CCCC3)c3ccccc3n2)cc1` was > 80 µM (inactive); that for `c1ccc(-c2cc(NCCN3CCCCC3)c3ccccc3n2)cc1` was > 80 µM (inactive). The value for `c1ccc(-c2nc(NC3CCCC3)c3ccccc3n2)cc1` was > 80 µM (inactive); that for `c1ccc(-c2nc(NCCCn3ccnc3)c3ccccc3n2)cc1` was > 80 µM (inactive); that for `Cc1c(CCC(=O)O)c(=O)oc2c(C)c(OCc3ccccc3Cl)ccc12` was 15.7 µM. For `O=C(OCCNc1nc(-c2ccccc2)nc2ccccc12)c1cccnc1` the value was > 80 µM (inactive); for `COc1ccc(-c2cc(NCCCN3CCCCC3)c3ccccc3n2)cc1`, > 80 µM (inactive).

As to `c1ccc(-c2nc(N3CCCCCC3)c3ccccc3n2)cc1`, the IC50 is > 80 µM (inactive).

For `c1ccc2c(NCCCN3CCCCC3)cc(-c3ccncc3)nc2c1`, the IC50 is > 80 µM (inactive).

`Brc1ccc2nc(-c3ccccc3)cc(NCCCN3CCCCC3)c2c1`: the IC50 is > 80 µM (inactive). For `c1ccc(-c2cc(NCCCN3CCCCC3)c3ccccc3n2)cc1` the value was > 80 µM (inactive); for `COc1cc2nc(-c3ccccc3)cc(NCCCN3CCCCC3)c2cc1OC`, > 80 µM (inactive); for `Fc1ccccc1-c1nc(NCCCN2CCOCC2)c2ccccc2n1`, > 80 µM (inactive). For `c1ccc(-c2cc(NCCN3CCOCC3)c3ccccc3n2)cc1` the value was > 80 µM (inactive); for `c1ccc(-c2cc(SCCCN3CCCCC3)c3ccccc3n2)cc1`, > 80 µM (inactive).

As for `Clc1cccc(Cl)c1Cn1cnc(=NCc2ccco2)c2[nH]cnc21`, the IC50 was > 80 µM (inactive). For `Clc1ccc(-c2cc(NCCCN3CCCCC3)c3ccccc3n2)cc1` the value was > 80 µM (inactive); for `CC(C)OCCCNc1nc(-c2ccccc2)nc2ccccc12`, > 80 µM (inactive); for `CN1CCN(c2nc(-c3ccccc3)nc3ccccc23)CC1`, > 80 µM (inactive). The value for `c1ccc(-c2nc(NCCN3CCOCC3)c3ccccc3n2)cc1` was > 80 µM (inactive).

The values are drawn from PubChem BioAssay AID743309 (Sanford-Burnham Center for Chemical Genomics, 2014).
